Molecular target: T1, PSMA (Homo sapiens, UniProt Q04609)
T1 construct: host or cells: LNCaP human prostate cancer cells
Assay: Competitive binding assay against [123I]-MIP-1072 on LNCaP cells
Conditions: FIG. 1
Description: The newly prepared analogs of the general structure 5 were screened in a human prostate cancer cell binding assay at a concentration of 3 nM using PSMA positive (+), LnCap cells.
Human prostate cancer cell line, LNCaP (PSMA positive) were obtained from the American Type Culture Collection (Rockville, Md.). LNCaP cells were maintained in RPMI-1640 medium (Invitrogen, Carlsbad, Calif.) supplemented with 10% fetal bovine serum (Hyclone, Logan, Utah) in a humidified incubator at 37° C./5% CO2. Cells were removed from flasks for passage or for transfer to 12-well assay plates by incubating them with 0.25% trypsin/EDTA (Invitrogen, Carlsbad, Calif.).
In a typical competitive binding assay, LNCaP cells were plated in 12-well plates at approximately 4×10^5 cells/well and incubated for 48 hours in a humidified incubator at 37° C./5% carbon dioxide prior to addition of PSMA inhibitors. The exemplary EDTA-PSMA tetramer MIP-1444 was diluted in serum-free cell culture medium containing 0.5% bovine serum albumin (BSA). Diluted MIP-1444 was added to the cells in the presence of 3 nM [^123I]-MIP-1072 for 1 hour at room temperature. Cells were removed from the plates by gently pipetting and transferred to 1.5 mL Eppendorff tubes. Samples were microcentrifuged for 30 seconds at 15K×g. […] Cell binding of [^123I]-MIP-1072 was determined by counting the cell pellet in a Wallac 1282 automated gamma counter. […]

T1 sequence (Q04609 whole entry): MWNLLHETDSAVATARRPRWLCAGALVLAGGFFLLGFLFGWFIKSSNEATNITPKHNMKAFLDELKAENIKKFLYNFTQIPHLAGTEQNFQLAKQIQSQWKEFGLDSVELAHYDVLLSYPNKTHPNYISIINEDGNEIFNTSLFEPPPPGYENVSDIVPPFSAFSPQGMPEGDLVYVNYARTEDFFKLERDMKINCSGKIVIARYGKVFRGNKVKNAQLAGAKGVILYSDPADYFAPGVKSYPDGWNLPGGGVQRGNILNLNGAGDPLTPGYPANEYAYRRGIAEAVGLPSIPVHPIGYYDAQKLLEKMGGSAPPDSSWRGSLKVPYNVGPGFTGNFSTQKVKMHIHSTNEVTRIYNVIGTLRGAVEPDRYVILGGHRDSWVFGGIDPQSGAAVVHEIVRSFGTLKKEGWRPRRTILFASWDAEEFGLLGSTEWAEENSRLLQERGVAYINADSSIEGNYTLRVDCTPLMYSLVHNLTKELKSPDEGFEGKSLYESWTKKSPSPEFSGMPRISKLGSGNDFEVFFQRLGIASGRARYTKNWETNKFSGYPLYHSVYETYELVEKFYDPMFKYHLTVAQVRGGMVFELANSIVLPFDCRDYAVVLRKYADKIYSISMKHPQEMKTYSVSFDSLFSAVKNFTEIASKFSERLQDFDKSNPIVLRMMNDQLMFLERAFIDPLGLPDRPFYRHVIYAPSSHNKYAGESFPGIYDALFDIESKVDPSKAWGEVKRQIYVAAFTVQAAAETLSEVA

NCCCC[C@H](NC(=O)N[C@@H](CCC(=O)O)C(=O)O)C(=O)O [MIP-1033]
IC50 value fold greater than the IC50 for the tetramer MIP-1444 (3 nM [123I]-MIP-1072, 1 hour at room temperature): 36 fold | affinity for PSMA (in words) (competitive binding curves): low affinity
